Data as given in ChEMBL document CHEMBL6153041, “Discovery of High-Affinity SMARCA2/4 Bromodomain Ligands and Development of Potent and Exceptionally Selective SMARCA2 PROTAC Degraders” (J Med Chem, 2025).

Legend:
[1] = tested on: von Hippel-Lindau disease tumor suppressor/SWI/SNF-related matrix-associated actin-dependent regulator of chromatin subfamily A member 4 (Homo sapiens), P51532+P40337 [UNDEFINED MUTATION]; assay: PROTAC activity at VHL1/SMARCA4 mutant in human SK-MEL-5 cells assessed as maximal degradation measured after 24 hrs incubation by Western blot analysis relative to control; type: cell-based
[2] = target: T1, von Hippel-Lindau disease tumor suppressor/SWI/SNF-related matrix-associated actin-dependent regulator of chromatin subfamily A member 2 (Homo sapiens, UniProt P51531+P40337); assay: PROTAC activity at VHL1/SMARCA2 in human genetically modified Hela cells assessed as maximal degradation measured after 4 hrs incubation by Nano-Glo HiBiT Lytic Detection Assay relative to control; type: cell-based
[3] = tested on: SK-MEL-5; assay: Anticancer activity against SMARCA4 deficient human SK-MEL-5 cells assessed as maximal inhibition of cell growth measured after 7 days incubation by WST-8 assay relative to control; type: functional; conditions: time 7 day
[4] = target: T2, von Hippel-Lindau disease tumor suppressor/SWI/SNF-related matrix-associated actin-dependent regulator of chromatin subfamily A member 4 (Homo sapiens, UniProt P51532+P40337); assay: PROTAC activity at VHL1/SMARCA4 in human genetically modified Hela cells assessed as degradation measured after 4 hrs incubation by Nano-Glo HiBiT Lytic Detection Assay; type: cell-based
Target sequence in this assay (P51532 whole entry): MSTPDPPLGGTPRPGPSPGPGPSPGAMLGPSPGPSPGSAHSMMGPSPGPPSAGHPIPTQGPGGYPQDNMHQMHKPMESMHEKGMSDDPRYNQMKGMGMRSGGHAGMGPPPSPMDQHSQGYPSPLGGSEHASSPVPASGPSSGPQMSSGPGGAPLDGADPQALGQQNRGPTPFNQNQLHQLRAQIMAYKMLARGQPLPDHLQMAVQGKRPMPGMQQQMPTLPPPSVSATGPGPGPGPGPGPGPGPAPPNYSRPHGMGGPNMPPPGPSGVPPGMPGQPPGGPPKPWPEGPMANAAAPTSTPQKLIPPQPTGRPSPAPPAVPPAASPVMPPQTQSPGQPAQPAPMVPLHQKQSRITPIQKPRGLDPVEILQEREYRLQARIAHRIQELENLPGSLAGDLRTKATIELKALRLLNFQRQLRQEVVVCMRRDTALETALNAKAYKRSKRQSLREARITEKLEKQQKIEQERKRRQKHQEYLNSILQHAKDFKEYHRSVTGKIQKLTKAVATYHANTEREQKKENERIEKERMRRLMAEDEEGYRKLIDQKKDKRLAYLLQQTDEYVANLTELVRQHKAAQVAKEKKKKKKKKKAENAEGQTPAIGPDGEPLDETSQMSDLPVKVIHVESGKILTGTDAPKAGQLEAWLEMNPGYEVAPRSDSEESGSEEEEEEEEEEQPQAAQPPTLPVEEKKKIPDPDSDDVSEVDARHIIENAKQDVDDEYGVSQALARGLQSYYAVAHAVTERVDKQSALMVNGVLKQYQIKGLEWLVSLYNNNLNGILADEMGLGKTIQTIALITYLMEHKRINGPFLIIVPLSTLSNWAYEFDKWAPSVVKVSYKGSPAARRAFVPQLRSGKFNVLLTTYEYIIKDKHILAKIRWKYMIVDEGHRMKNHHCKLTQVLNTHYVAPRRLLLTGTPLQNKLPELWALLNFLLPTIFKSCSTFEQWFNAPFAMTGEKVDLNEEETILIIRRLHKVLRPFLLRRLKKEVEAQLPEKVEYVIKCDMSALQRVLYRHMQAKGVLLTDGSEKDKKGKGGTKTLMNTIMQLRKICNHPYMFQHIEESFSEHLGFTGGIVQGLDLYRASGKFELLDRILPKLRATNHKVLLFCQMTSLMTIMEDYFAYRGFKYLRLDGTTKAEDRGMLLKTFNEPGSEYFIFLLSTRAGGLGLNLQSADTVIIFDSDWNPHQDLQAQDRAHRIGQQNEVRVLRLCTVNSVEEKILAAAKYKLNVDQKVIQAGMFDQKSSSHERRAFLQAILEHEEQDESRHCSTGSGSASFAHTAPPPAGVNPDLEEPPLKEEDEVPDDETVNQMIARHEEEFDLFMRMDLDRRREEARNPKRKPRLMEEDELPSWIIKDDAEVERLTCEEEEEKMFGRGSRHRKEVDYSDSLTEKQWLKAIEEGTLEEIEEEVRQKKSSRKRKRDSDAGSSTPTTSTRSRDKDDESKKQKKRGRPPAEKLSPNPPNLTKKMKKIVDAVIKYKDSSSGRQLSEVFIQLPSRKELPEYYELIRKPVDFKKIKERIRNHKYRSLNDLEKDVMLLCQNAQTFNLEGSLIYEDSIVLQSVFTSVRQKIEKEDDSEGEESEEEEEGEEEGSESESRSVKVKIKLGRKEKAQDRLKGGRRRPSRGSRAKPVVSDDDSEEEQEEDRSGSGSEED
Target sequence in this assay (P40337 whole entry): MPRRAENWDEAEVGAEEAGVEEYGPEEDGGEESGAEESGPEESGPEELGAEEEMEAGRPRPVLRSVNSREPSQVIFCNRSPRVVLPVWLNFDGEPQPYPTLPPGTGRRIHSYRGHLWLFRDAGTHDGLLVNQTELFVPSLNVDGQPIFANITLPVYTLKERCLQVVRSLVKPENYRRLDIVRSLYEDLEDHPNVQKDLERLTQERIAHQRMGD

[5] = target: T2, von Hippel-Lindau disease tumor suppressor/SWI/SNF-related matrix-associated actin-dependent regulator of chromatin subfamily A member 4; assay: PROTAC activity at VHL1/SMARCA4 in human genetically modified Hela cells assessed as degradation measured after 8 hrs incubation by Nano-Glo HiBiT Lytic Detection Assay; type: cell-based
Target sequence in this assay (P51532 whole entry): as the sequence (P51532 whole entry) above
Target sequence in this assay (P40337 whole entry): as the sequence (P40337 whole entry) above

[6] = target: T2, von Hippel-Lindau disease tumor suppressor/SWI/SNF-related matrix-associated actin-dependent regulator of chromatin subfamily A member 4; assay: PROTAC activity at VHL1/SMARCA4 mutant in human NCI-H838 cells assessed as degradation measured after 24 hrs incubation by Western blot analysis; type: cell-based
[7] = tested on: von Hippel-Lindau disease tumor suppressor/SWI/SNF-related matrix-associated actin-dependent regulator of chromatin subfamily A member 4 (Homo sapiens), P51532+P40337 [UNDEFINED MUTATION]; assay: PROTAC activity at VHL1/SMARCA4 mutant in human NCI-H838 cells assessed as maximal degradation measured after 24 hrs incubation by Western blot analysis relative to control; type: cell-based
[8] = target: T1, von Hippel-Lindau disease tumor suppressor/SWI/SNF-related matrix-associated actin-dependent regulator of chromatin subfamily A member 2; assay: PROTAC activity at VHL1/SMARCA2 in human genetically modified Hela cells assessed as maximal degradation measured after 8 hrs incubation by Nano-Glo HiBiT Lytic Detection Assay relative to control; type: cell-based
[9] = tested on: HeLa; assay: Selectivity ratio, ratio of DC50 for VHL1/SMARCA4 in human genetically modified Hela cells to VHL1/SMARCA2 in human genetically modified Hela cells; type: cell-based
[10] = target: T2, von Hippel-Lindau disease tumor suppressor/SWI/SNF-related matrix-associated actin-dependent regulator of chromatin subfamily A member 4; assay: PROTAC activity at VHL1/SMARCA4 in human genetically modified Hela cells assessed as maximal degradation measured after 8 hrs incubation by Nano-Glo HiBiT Lytic Detection Assay relative to control; type: cell-based
[11] = Anticancer activity against SMARCA4 deficient human NCI-H838 cells assessed as maximal inhibition of cell growth measured after 7 days incubation by WST-8 assay relative to control; type: functional; conditions: time 7 day
[12] = target: T2, von Hippel-Lindau disease tumor suppressor/SWI/SNF-related matrix-associated actin-dependent regulator of chromatin subfamily A member 4; assay: PROTAC activity at VHL1/SMARCA4 in human genetically modified Hela cells assessed as degradation measured after 24 hrs incubation by Nano-Glo HiBiT Lytic Detection Assay; type: cell-based
Target sequence in this assay (P51532 whole entry): as the sequence (P51532 whole entry) above
Target sequence in this assay (P40337 whole entry): as the sequence (P40337 whole entry) above

[13] = target: T2, von Hippel-Lindau disease tumor suppressor/SWI/SNF-related matrix-associated actin-dependent regulator of chromatin subfamily A member 4; assay: PROTAC activity at VHL1/SMARCA4 in human genetically modified Hela cells assessed as degradation measured after 48 hrs incubation by Nano-Glo HiBiT Lytic Detection Assay; type: cell-based
Target sequence in this assay (P51532 whole entry): as the sequence (P51532 whole entry) above
Target sequence in this assay (P40337 whole entry): as the sequence (P40337 whole entry) above

[14] = tested on: NCI-H1792; assay: Anticancer activity against human NCI-H1792 cells harbouring wild type SMARCA4 assessed as maximal inhibition of cell growth measured after 7 days incubation by WST-8 assay relative to control; type: functional; conditions: time 7 day
[15] = target: T1, von Hippel-Lindau disease tumor suppressor/SWI/SNF-related matrix-associated actin-dependent regulator of chromatin subfamily A member 2; assay: PROTAC activity at VHL1/SMARCA2 in human NCI-H1792 cells assessed as degradation measured after 24 hrs incubation by Western blot analysis; type: cell-based
Target sequence in this assay (P51531 whole entry): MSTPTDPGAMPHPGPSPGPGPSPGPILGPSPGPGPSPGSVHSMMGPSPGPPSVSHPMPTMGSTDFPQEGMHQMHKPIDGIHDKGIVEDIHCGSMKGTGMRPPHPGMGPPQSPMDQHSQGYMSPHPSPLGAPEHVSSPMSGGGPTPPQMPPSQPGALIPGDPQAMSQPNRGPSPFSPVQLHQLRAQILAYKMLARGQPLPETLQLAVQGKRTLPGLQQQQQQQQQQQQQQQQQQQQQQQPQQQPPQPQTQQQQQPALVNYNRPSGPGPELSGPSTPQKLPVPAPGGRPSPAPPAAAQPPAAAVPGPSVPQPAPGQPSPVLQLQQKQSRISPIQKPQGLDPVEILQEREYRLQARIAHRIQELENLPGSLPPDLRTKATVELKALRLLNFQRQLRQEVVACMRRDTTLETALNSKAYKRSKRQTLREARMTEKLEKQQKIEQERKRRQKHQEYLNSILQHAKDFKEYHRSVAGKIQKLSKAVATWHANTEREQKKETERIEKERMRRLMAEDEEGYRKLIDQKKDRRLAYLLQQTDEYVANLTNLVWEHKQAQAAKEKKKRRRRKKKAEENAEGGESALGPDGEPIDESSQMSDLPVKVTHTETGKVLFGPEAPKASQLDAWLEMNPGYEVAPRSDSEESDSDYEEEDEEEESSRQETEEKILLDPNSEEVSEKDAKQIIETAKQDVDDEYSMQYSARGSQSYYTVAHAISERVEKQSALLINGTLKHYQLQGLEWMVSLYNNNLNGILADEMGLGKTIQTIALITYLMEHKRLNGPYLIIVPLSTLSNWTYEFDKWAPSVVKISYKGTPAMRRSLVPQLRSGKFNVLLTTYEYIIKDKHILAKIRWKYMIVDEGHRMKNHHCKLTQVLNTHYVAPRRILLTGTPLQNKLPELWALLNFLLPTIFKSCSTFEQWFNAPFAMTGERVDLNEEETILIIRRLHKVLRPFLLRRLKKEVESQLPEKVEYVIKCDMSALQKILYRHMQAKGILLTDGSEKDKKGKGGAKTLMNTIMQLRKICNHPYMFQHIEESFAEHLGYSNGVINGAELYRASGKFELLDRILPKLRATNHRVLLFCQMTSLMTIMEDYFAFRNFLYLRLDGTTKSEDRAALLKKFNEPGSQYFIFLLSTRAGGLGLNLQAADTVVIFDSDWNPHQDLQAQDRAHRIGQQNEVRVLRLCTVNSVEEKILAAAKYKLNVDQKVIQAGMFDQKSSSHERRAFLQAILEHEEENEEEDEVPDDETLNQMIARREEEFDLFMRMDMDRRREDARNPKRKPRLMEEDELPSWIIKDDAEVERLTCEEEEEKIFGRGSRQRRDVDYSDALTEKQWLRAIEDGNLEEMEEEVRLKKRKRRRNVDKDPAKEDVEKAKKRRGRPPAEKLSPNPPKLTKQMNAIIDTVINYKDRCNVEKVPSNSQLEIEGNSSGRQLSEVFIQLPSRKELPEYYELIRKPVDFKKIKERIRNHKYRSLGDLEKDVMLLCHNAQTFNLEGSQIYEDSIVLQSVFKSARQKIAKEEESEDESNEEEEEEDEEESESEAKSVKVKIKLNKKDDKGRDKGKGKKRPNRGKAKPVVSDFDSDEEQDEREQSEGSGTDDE
Target sequence in this assay (P40337 whole entry): as the sequence (P40337 whole entry) above

[16] = tested on: SK-MEL-28; assay: Anticancer activity against human SK-MEL-28 cells harbouring wild type SMARCA4 assessed as inhibition of cell growth measured after 7 days incubation by WST-8 assay; type: functional; conditions: SK-MEL-28, 168 h, time 7 day
[17] = Anticancer activity against SMARCA4 deficient human NCI-H838 cells assessed as inhibition of cell growth measured after 7 days incubation by WST-8 assay; type: functional; conditions: NCI-H838, 168 h, time 7 day
[18] = tested on: SK-MEL-28; assay: Anticancer activity against human SK-MEL-28 cells harbouring wild type SMARCA4 assessed as maximal inhibition of cell growth measured after 7 days incubation by WST-8 assay relative to control; type: functional; conditions: time 7 day
[19] = target: T2, von Hippel-Lindau disease tumor suppressor/SWI/SNF-related matrix-associated actin-dependent regulator of chromatin subfamily A member 4; assay: PROTAC activity at VHL1/SMARCA4 in human genetically modified Hela cells assessed as maximal degradation measured after 24 hrs incubation by Nano-Glo HiBiT Lytic Detection Assay relative to control; type: cell-based
[20] = target: T2, von Hippel-Lindau disease tumor suppressor/SWI/SNF-related matrix-associated actin-dependent regulator of chromatin subfamily A member 4; assay: PROTAC activity at VHL1/SMARCA4 mutant in human SK-MEL-5 cells assessed as degradation measured after 24 hrs incubation by Western blot analysis; type: cell-based
[21] = tested on: NCI-H1792; assay: Anticancer activity against human NCI-H1792 cells harbouring wild type SMARCA4 assessed as inhibition of cell growth measured after 7 days incubation by WST-8 assay; type: functional; conditions: NCI-H1792, 168 h, time 7 day
[22] = target: T2, von Hippel-Lindau disease tumor suppressor/SWI/SNF-related matrix-associated actin-dependent regulator of chromatin subfamily A member 4; assay: PROTAC activity at VHL1/SMARCA4 in human genetically modified Hela cells assessed as maximal degradation measured after 48 hrs incubation by Nano-Glo HiBiT Lytic Detection Assay relative to control; type: cell-based
[23] = target: T2, von Hippel-Lindau disease tumor suppressor/SWI/SNF-related matrix-associated actin-dependent regulator of chromatin subfamily A member 4; assay: PROTAC activity at VHL1/SMARCA4 in human NCI-H1792 cells assessed as maximal degradation measured after 24 hrs incubation by Western blot analysis relative to control; type: cell-based
[24] = target: T1, von Hippel-Lindau disease tumor suppressor/SWI/SNF-related matrix-associated actin-dependent regulator of chromatin subfamily A member 2; assay: PROTAC activity at VHL1/SMARCA2 in human NCI-H1792 cells assessed as maximal degradation measured after 24 hrs incubation by Western blot analysis relative to control; type: cell-based
[25] = target: T2, von Hippel-Lindau disease tumor suppressor/SWI/SNF-related matrix-associated actin-dependent regulator of chromatin subfamily A member 4; assay: PROTAC activity at VHL1/SMARCA4 in human genetically modified Hela cells assessed as maximal degradation measured after 4 hrs incubation by Nano-Glo HiBiT Lytic Detection Assay relative to control; type: cell-based
[26] = target: T1, von Hippel-Lindau disease tumor suppressor/SWI/SNF-related matrix-associated actin-dependent regulator of chromatin subfamily A member 2; assay: PROTAC activity at VHL1/SMARCA2 in human genetically modified Hela cells assessed as maximal degradation measured after 24 hrs incubation by Nano-Glo HiBiT Lytic Detection Assay relative to control; type: cell-based
[27] = tested on: SK-MEL-5; assay: Anticancer activity against SMARCA4 deficient human SK-MEL-5 cells assessed as inhibition of cell growth measured after 7 days incubation by WST-8 assay; type: functional; conditions: SK-MEL-5, 168 h, time 7 day
[28] = target: T1, von Hippel-Lindau disease tumor suppressor/SWI/SNF-related matrix-associated actin-dependent regulator of chromatin subfamily A member 2; assay: PROTAC activity at VHL1/SMARCA2 in human genetically modified Hela cells assessed as maximal degradation measured after 48 hrs incubation by Nano-Glo HiBiT Lytic Detection Assay relative to control; type: cell-based
[29] = target: T1, von Hippel-Lindau disease tumor suppressor/SWI/SNF-related matrix-associated actin-dependent regulator of chromatin subfamily A member 2; assay: PROTAC activity at VHL1/SMARCA2 in human genetically modified Hela cells assessed as degradation measured after 4 hrs incubation by Nano-Glo HiBiT Lytic Detection Assay; type: cell-based
Target sequence in this assay (P51531 whole entry): as the sequence (P51531 whole entry) above
Target sequence in this assay (P40337 whole entry): as the sequence (P40337 whole entry) above

[30] = target: T1, von Hippel-Lindau disease tumor suppressor/SWI/SNF-related matrix-associated actin-dependent regulator of chromatin subfamily A member 2; assay: PROTAC activity at VHL1/SMARCA2 in human genetically modified Hela cells assessed as degradation measured after 48 hrs incubation by Nano-Glo HiBiT Lytic Detection Assay; type: cell-based
Target sequence in this assay (P51531 whole entry): as the sequence (P51531 whole entry) above
Target sequence in this assay (P40337 whole entry): as the sequence (P40337 whole entry) above

[31] = target: T1, von Hippel-Lindau disease tumor suppressor/SWI/SNF-related matrix-associated actin-dependent regulator of chromatin subfamily A member 2; assay: PROTAC activity at VHL1/SMARCA2 in human genetically modified Hela cells assessed as degradation measured after 8 hrs incubation by Nano-Glo HiBiT Lytic Detection Assay; type: cell-based
Target sequence in this assay (P51531 whole entry): as the sequence (P51531 whole entry) above
Target sequence in this assay (P40337 whole entry): as the sequence (P40337 whole entry) above

[32] = target: T2, von Hippel-Lindau disease tumor suppressor/SWI/SNF-related matrix-associated actin-dependent regulator of chromatin subfamily A member 4; assay: PROTAC activity at VHL1/SMARCA4 in human NCI-H1792 cells assessed as degradation measured after 24 hrs incubation by Western blot analysis; type: cell-based
Target sequence in this assay (P51532 whole entry): as the sequence (P51532 whole entry) above
Target sequence in this assay (P40337 whole entry): as the sequence (P40337 whole entry) above

[33] = target: SWI/SNF-related matrix-associated actin-dependent regulator of chromatin subfamily A member 4 (Homo sapiens, UniProt P51532); assay: Binding affinity to SMARCA4 (unknown origin) assessed as dissociation constant

**Q.** Which Emax [1] does the source give for `Cc1ncsc1-c1ccc([C@H](C)NC(=O)[C@@H]2C[C@@H](O)CN2C(=O)[C@@H](NC(=O)[C@H]2CC[C@H](CN3CCC(c4ccc5c(c4)-n4c(nc(=O)c6c(Cl)cccc64)C54CCCCC4)CC3)CC2)C(C)(C)C)cc1` here?
**A.** 87%

**Q.** And the Emax [2]?
**A.** 76%

**Q.** And the Imax [3]?
**A.** 93%

**Q.** What about the DC50 [4] of the same compound?
**A.** > 1000 nM

**Q.** And the DC50 [5]?
**A.** > 1000 nM

**Q.** And the DC50 [6]?
**A.** 76.2 nM

**Q.** And the Emax [7]?
**A.** < 89%

**Q.** And the Emax [8]?
**A.** 85%

**Q.** What about the Ratio [9] of the same compound?
**A.** > 1250

**Q.** What about the Emax [10] of the same compound?
**A.** < 10%

**Q.** What about the Imax [11] of the same compound?
**A.** 79%

**Q.** And the DC50 [12]?
**A.** > 10000 nM

**Q.** And the DC50 [13]?
**A.** > 1000 nM

**Q.** And the Imax [14]?
**A.** 0%

**Q.** And the DC50 [15]?
**A.** 54.2 nM

**Q.** What about the GI50 [16] of the same compound?
**A.** > 1000 nM

**Q.** And the GI50 [17]?
**A.** 142 nM

**Q.** What about the Imax [18] of the same compound?
**A.** 0%

**Q.** And the Emax [19]?
**A.** 20%

**Q.** What about the DC50 [20] of the same compound?
**A.** 81.1 nM

**Q.** What about the GI50 [21] of the same compound?
**A.** > 1000 nM

**Q.** And the Emax [22]?
**A.** < 10%

**Q.** And the Emax [23]?
**A.** < 30%

**Q.** What about the Emax [24] of the same compound?
**A.** 87%

**Q.** What about the Emax [25] of the same compound?
**A.** < 10%

**Q.** What about the Emax [26] of the same compound?
**A.** 89%

**Q.** And the GI50 [27]?
**A.** > 22.3 nM

**Q.** What about the Emax [28] of the same compound?
**A.** 91%

**Q.** And the DC50 [29]?
**A.** 142 nM

**Q.** And the DC50 [30]?
**A.** 44 nM

**Q.** What about the DC50 [31] of the same compound?
**A.** 89 nM

**Q.** And the DC50 [32]?
**A.** > 1000 nM

**Q.** For `Cn1cc(-c2cc(-c3ccccc3O)nnc2N)cn1`, which Kd [33] is on record?
**A.** 12.8 nM
